2 molecules from PubChem BioAssay AID1963825 (Molecular Pharmacology Branch, DTP, NCI, 2024) can be followed below.

By IC50 is commonly meant the concentration that inhibits the measured activity by half. Broadly, the viability, T/C is the result in the treated group divided by that in the control group, in per cent.

The test can be described thus: Anticancer human tumor 997537-175-T-J1-PDC patient-derived colon adenocarcinoma cell line growth inhibition [POLQ]. Conditions: 997537-175-T-J1-PDC complex spheroid viability, combination with POLQ inhibitors; for viability, T/C: stronger effect = lower value. How it is done:
Multicellular complex tumor spheroid response to Polymerase (POL) inhibitors (novobiocin, ART-558, RP6685) in combination with a variety of drugs and investigational agents in selected tumor cell lines
The POL inhibitors (novobiocin, ART-558, and RP6685) were evaluated both individually and in combination with standard of care and investigational anticancer small molecules within a complex spheroid model of solid tumors. . Complex spheroids include a stromal component modeled by human endothelial cells (HUVEC) and fibroblasts modeled by human mesenchymal stem cells (MSCs). The concentration ranges selected for each drug and investigational agent were based upon clinically achievable concentrations if the clinical Cmax of the agent was known.
Compounds. The drugs and investigational agents: novobiocin (NSC847541), ART-558 (NSC835418), RP-6685 (NSC848927), peposertib (NSC802822), ceralasertib (NSC780249), elimusertib (NSC800525), camonsertib (NSC841442), AZD-1390 (NSC803789), olaparib (NSC753686), talazoparib (NSC767125), rucaparib (NSC756644), sotorasib (NSC818433), MRTX-1133 (NSC836407), SN-38 (NSC673596), topotecan (NSC609699), epotoside (NSC141540), doxorubicin (NSC123127), gemcitabine (NSC613327), 5-fluorouracil (NSC19893), paclitaxel (NSC125973), vemurafenib (NSC761431), MSA-2 (NSC828583), SN-011 (NSC837082), adavosertib (NSC754352), prexasertib (NSC758257), carboplatin (NSC241240) and oxaliplatin (NSC266046), were obtained from the National Cancer Institute (NCI) Developmental Therapeutics Program Chemical Repository (21). The FDA-approved anticancer drug set is available from the Developmental Therapeutics Program at https://dtp.cancer.gov/organization/dscb/obtaining/. […] The stock solutions were prepared in dimethyl sulfoxide (DMSO, Sigma-Aldrich, St. Louis, MO, cat. D2650), except for the platinum compounds which were prepared in saline (Quality Biological, Gaithersburg, MD, cat. 114-055-101), at 800-fold the tested concentration and stored at -70 degrees C prior to their use. All drugs and investigational agents were tested over a range starting from a high concentration at or near the clinical Cmax and decreasing in half-log increments. If the clinical Cmax for an agent had not been determined, the highest concentration tested was 10 microM, except for SN-38, which was tested at a high concentration of 1 microM.
Cell Culture. All cells were maintained in an incubator at 37 degrees C and 5% CO2 with 95% humidity. The PDC lines were cultured according to standard operating procedures established by the NCI PDMR (https://pdmr.cancer.gov). Table 3 of the manuscript, lists the cell lines along with the number of the three cell types plated to form the mct-spheroids and media for tumor cell growth. After thawing, all PDC lines, except 997537-175-T-J1-PDC and 415267-285-R-J2-PDC, were cultured in Matrigel-coated flasks prepared with a working solution of 1X Ham's F-12 nutrient mix, without supplementation (Thermo Fisher Scientific, cat. 11765054), 100 U/mL penicillin-streptomycin (Thermo Fisher Scientific, cat. 15140122), and 2.5% Matrigel (Corning Inc., Corning, NY, cat. 354248) for the first three passages. The two PDC lines 997537-175-T-J1-PDC and 415267-285-R-J2-PDC were cultured on uncoated flasks. The 857933-349-R-J2-PDC line was cultured in 6C/Colon 1B media containing advanced DMEM/F-12 (Thermo Fisher Scientific, cat. 12634028), 10 mM HEPES (Thermo Fisher Scientific, cat. 15630080), 1X GlutaMAX supplement (Thermo Fisher Scientific, cat. 35050061), 0.1 mg/mL primocin (InvivoGen, San Diego, CA, cat. ant-pm-2), 10% defined fetal bovine serum, heat inactivated (HyClone Laboratories Inc., Logan, UT, cat. SH30070.03HI), 50% L-WRN conditioned media (ATCC, cat. CRL-3276), 1.25 mM N-Acetyl-L-cysteine (Sigma-Aldrich, cat. A9165), 10 mM nicotinamide (Sigma-Aldrich, cat. N0636), 1X B-27 supplement (Thermo Fisher Scientific, cat. 17504044), 1X N-2 supplement (Thermo Fisher Scientific, cat. […]

SMILES strings stand for the structures. A value given as a limit tells only on which side of the number the result lay.
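Also: luminescence signal used as a surrogate for viable cells; spheroids exposed to drugs for seven days before readout.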

As to `O=C(c1cc(Cc2n[nH]c(=O)c3ccccc23)ccc1F)N1CCN(C(=O)C2CC2)CC1` + Nc1ccc(C#CCN(C(=O)Cc2ncc(C(F)(F)F)cc2C(F)(F)F)c2ccc(F)cc2)nn1, the IC50 reads like this: (curve of first compound, second compound 0.0316 µM) more than 10 µM; (curve of first compound, second compound 0.1 µM) more than 10 µM; (curve of first compound, second compound 0.316 µM) more than 10 µM; (curve of first compound, second compound 1 µM) more than 10 µM; (curve of first compound, second compound 3.16 µM) more than 10 µM; (curve of first compound, second compound 10 µM) more than 10 µM. Also, the viability, T/C by setting is: (second compound 0.0316 µM, first compound 0.0316 µM) 108%; (second compound 0.0316 µM, first compound 0.1 µM) 104%; (second compound 0.0316 µM, first compound 0.316 µM) 100%; (second compound 0.0316 µM, first compound 1 µM) 99.9%; (second compound 0.0316 µM, first compound 3.16 µM) 95.3%; (second compound 0.0316 µM, first compound 10 µM) 82%. The viability, T/C is 108% (second compound 0.1 µM, first compound 0.0316 µM); 103% (second compound 0.1 µM, first compound 0.1 µM); 94.4% (second compound 0.1 µM, first compound 0.316 µM); 93.7% (second compound 0.1 µM, first compound 1 µM); 84.6% (second compound 0.1 µM, first compound 3.16 µM); 94.8% (second compound 0.1 µM, first compound 10 µM). Moreover, the viability, T/C was 106% (second compound 0.316 µM, first compound 0.0316 µM); 111% (second compound 0.316 µM, first compound 0.1 µM); 104% (second compound 0.316 µM, first compound 0.316 µM); 98.3% (second compound 0.316 µM, first compound 1 µM); 93.5% (second compound 0.316 µM, first compound 3.16 µM); 98.9% (second compound 0.316 µM, first compound 10 µM). In addition, the viability, T/C was 104% (second compound 1 µM, first compound 0.0316 µM); 98.2% (second compound 1 µM, first compound 0.1 µM); 103% (second compound 1 µM, first compound 0.316 µM); 104% (second compound 1 µM, first compound 1 µM); 93.2% (second compound 1 µM, first compound 3.16 µM); 99.3% (second compound 1 µM, first compound 10 µM). For the same molecule, the viability, T/C was 96.7% (second compound 3.16 µM, first compound 0.0316 µM); 94.4% (second compound 3.16 µM, first compound 0.1 µM); 98.8% (second compound 3.16 µM, first compound 0.316 µM); 90.1% (second compound 3.16 µM, first compound 1 µM); 98.5% (second compound 3.16 µM, first compound 3.16 µM); 95.3% (second compound 3.16 µM, first compound 10 µM). The viability, T/C (second compound 10 µM, first compound 0.0316 µM) is 108%; the viability, T/C (second compound 10 µM, first compound 0.1 µM) is 103%; the viability, T/C (second compound 10 µM, first compound 0.316 µM) was 97.3%; the viability, T/C (second compound 10 µM, first compound 1 µM) is 91.3%; the viability, T/C (second compound 10 µM, first compound 3.16 µM) was 112%; the viability, T/C (second compound 10 µM, first compound 10 µM) is 98.9%.

`COC1C(OC(N)=O)C(O)C(Oc2ccc3c(O)c(NC(=O)c4ccc(O)c(CC=C(C)C)c4)c(=O)oc3c2C)OC1(C)C` (stereo unspecified): the viability, T/C reads like this: (compound 0.1 µM) 97.2% [middle of 13 runs]; (compound 0.316 µM) 97.4% [middle of 13 runs]; (compound 1 µM) 95.6% [middle of 13 runs]. Besides, the IC50 (compound alone, run of 11/27/2023) is more than 10 µM.
